Article PMC7026498, “GABAA Receptor β2E155 Residue Located at the Agonist-Binding Site Is Involved in the Receptor Gating” (Frontiers in Cellular Neuroscience, 2020)

Experiments:
[1] = molecular target: T1, GABAA receptor α1β2E155Cγ2L (β2 subunit) (Rattus norvegicus, UniProt P62813+P63138, P63138:E179C); experiment: whole-cell patch-clamp dose-response (extrapolated Hill fit) and single-channel recording; format: cell-based
T1 construct: gene Gabrb2; recombinant α1β2E155Cγ2L receptor in HEK293 cells; with GABAA receptor α1 and γ2L subunits

[2] = molecular target: T2, GABAA receptor α1β2γ2L (β2 subunit) (Rattus norvegicus, UniProt P62813+P63138); experiment: whole-cell patch-clamp dose-response; format: cell-based
T2 construct: gene Gabrb2; recombinant α1β2γ2L receptor in HEK293 cells; with GABAA receptor α1 and γ2L subunits
T2 sequence (P63138 26-474): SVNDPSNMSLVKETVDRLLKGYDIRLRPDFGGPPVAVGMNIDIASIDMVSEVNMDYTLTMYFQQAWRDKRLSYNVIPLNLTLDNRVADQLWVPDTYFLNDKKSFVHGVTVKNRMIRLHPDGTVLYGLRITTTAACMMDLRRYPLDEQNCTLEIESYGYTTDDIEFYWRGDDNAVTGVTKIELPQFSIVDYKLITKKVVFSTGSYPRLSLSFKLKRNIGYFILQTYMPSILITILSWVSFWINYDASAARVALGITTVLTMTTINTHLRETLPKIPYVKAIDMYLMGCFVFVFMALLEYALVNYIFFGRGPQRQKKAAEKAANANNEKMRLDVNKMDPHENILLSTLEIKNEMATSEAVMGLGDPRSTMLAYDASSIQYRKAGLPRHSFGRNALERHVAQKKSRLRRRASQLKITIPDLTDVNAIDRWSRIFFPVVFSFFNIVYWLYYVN
T2 sequence (P62813 28-455): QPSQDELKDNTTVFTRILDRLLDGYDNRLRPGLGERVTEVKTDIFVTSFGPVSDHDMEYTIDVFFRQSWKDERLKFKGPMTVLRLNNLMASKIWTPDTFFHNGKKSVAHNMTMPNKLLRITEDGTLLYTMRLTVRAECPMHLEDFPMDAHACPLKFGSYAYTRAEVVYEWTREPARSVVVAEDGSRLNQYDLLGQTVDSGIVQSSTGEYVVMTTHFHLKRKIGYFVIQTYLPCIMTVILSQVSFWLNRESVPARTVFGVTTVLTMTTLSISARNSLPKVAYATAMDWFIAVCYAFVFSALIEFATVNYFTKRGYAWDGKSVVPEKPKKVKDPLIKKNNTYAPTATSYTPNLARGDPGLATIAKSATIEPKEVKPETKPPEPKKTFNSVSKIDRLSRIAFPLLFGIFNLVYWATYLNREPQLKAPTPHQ
T2 sequence (P18508 39-466 partner): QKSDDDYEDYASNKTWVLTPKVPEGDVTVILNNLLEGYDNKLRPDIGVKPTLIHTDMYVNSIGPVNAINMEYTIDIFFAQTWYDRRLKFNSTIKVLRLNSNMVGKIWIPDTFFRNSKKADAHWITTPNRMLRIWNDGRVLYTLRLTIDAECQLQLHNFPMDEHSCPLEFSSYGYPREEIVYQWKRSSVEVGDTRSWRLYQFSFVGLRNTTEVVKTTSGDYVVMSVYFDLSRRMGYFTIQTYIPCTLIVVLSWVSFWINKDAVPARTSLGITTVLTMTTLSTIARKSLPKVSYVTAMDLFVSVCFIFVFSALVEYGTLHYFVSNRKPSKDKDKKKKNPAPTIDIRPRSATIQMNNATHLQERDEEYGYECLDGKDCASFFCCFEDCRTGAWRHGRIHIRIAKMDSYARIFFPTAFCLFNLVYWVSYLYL

T1 sequence (P63138 26-474 E179C): as the sequence (P63138 26-474) above, with E154C counted along it
T1 sequence (P62813 28-455): as the sequence (P62813 28-455) above
T1 sequence (P18508 39-466 partner): as the sequence (P18508 39-466 partner) above

Molecule NCc1cc(=O)[nH]o1 [MSC, muscimol] has an EC50 [1] of 12.5 mM and an EC50 [2] of 0.009 mM.
